Key:
neuro2A cells = assay: neurite outgrowth in Neuro2a cells; format: cell-based; settings: for effect on resveratrol-stimulated neurite outgrowth: resveratrol 10 μM, Compound C 10 μM, SIRT1 inhibitors, STO 609 2.5 μM or dnAMPK expression
Protocol: FIG. 11A-D illustrates the resveratrol and AICAR stimulation of neurite outgrowth in Neuro2a cells. Neuro2a cells were switched to serum-starvation medium (medium containing 0.2% FCS) and treated with DMSO (vehicle control), resveratrol (10 μM) or AICAR (1 mM). (A) Serum deprivation of Neuro2a cells results in growth of short neurites that increase in length over 72 h. (B) Resveratrol induced rapid neurite outgrowth resulting in elaborate neurite network formation by 48 h. (C) AICAR stimulated extensive neurite outgrowth similar to that observed with resveratrol. (D).
FIG. 12A-M illustrates the dependency of resveratrol-induced neurite outgrowth and mitochondrial biogenesis on AMPK. Neuro2a cells were infected with lentivirus expressing GFP only (FUGW, control), dominant negative AMPK (dnAMPK) or constitutively active AMPK (caAMPK). Three days later cells were shifted to serum-starvation medium containing DMSO (control) or resveratrol (10 μM). In addition, uninfected Neuro2a cells in serum-starvation medium were treated with resveratrol alone, the AMPK inhibitor Compound C (CC, Biomol International L.P. (Plymouth Meeting, Pa.)) (10 μM) alone or with resveratrol and CC together. Images of the cultures captured in bright field and green fluorescence were overlaid to visualize neurite outgrowth. […] Neurite length in cells treated with caAMPK+resveratrol is also shown (G). […] Values were normalized to the 18S transcript. Data shown is representative of two independent experiments.
(§1) Cell culture and Reagents. Neuro2 cells obtained from ATCC were grown in MEM with 1.5 g/L sodium bicarbonate, 0.1 mM nonessential amino acids, 0.1 mM sodium pyruvate, 2 mM L-glutamine with 10% FCS. For differentiation, cells were switched to serum-starvation medium (containing 0.2% FCS). For neurite outgrowth measurements, experiments were done in quadruplicate and 100 neurites per well were randomly measured using the Metamorph software. Dorsal root ganglia sensory and cortical neurons were established from E13.5 mouse embryos, maintained in neurobasal medium supplemented with B27 (and NGF for DRG neurons) and infected with lentiviruses as described (Araki et al., 2004, Science 305:1010-1013; Hawley et al., 2005, Cell Metab 2:21-23). Resveratrol was a gift from Sirtris Pharmaceuticals (Cambridge Mass.) and AICAR was obtained from Toronto Research (North York, Canada). Splitomycin and Compound C were purchased from Biomol (Plymouth Meeting, Pa.) and Calbiochem (San Diego, Calif.). Sirtinol and nicotinamide were purchased from Sigma (Saint Louis, Mo.)
Neuro2a cells are a widely used as in vitro model of neuronal differentiation. These cells cease to proliferate and begin to differentiate, as evidenced by neurite outgrowth, in response to serum starvation, retinoic acid, or growth factors like neurotrophins and GDNF family ligands. […] Neuro2a cells grown under serum starvation conditions (0.2% fetal calf serum) were treated with AICAR (1 mM) or resveratrol (10 μM).
Since resveratrol activated AMPK and altered the differentiation of Neuro2a cells, we next asked whether AMPK activity was required for resveratrol-induced neurite outgrowth. To address this issue, we infected Neuro2a cells with lentivirus expressing either GFP alone (FUGW-control) or dominant negative AMPK (dnAMPK). After 3 days growth to allow robust lentiviral transgene expression, the medium was replaced with serum starvation medium. […] Resveratrol-induced neurite outgrowth was reduced in the presence of the AMPK pharmacological inhibitor Compound C (CC 10 μM) further supporting the importance of AMPK activity for resveratrol-induced neurite outgrowth.

AMPK = AMPK and ACC phosphorylation in DRG sensory neurons; format: cell-based, mouse; settings: for effect on resveratrol-induced AMPK phosphorylation: DRG neurons, resveratrol 10 μM, 2 h
Source text: (A) Embryonic DRG neurons from Lkb1 flox/flox mice were infected with lentivirus expressing Cre recombinase (FCIV-Cre) or GFP only (FUGW control). Lentiviral infection was monitored by GFP fluorescence (A). […] Lkb1 flox/flox DRG neurons were infected with FUGW or FCIV-Cre and treated as indicated. AMPK or ACC was immunoprecipitated from neuronal lysates and western blots were probed with the respective phospho-specific antibodies. […] No inhibition of AMPK or ACC phosphorylation was observed by treatment with SIRT1 or CaMKKβ inhibitors. Lysate from AICAR treated DRG neurons was included as a positive control. (E, F) Embryonic DRG neurons were cultured from wild type and SIRT1-deficient littermates derived from SIRT1 heterozygous matings. […] Levels of total AMPK and ACC are shown in the bottom panels of C, D, E and F. Densitometric analysis of changes in levels of phospho AMPK (G) and phospho ACC (H) in SIRT1+/+ and SIRT1−/− DRG neurons in presence and absence of resveratrol is shown. Note: Resv, resveratrol.
as §1
Plasmids and viruses. The dominant negative (dnAMPK) and constitutively active (caAMPK) plasmids were gifts from Russell Jones (University of Pennsylvania, Philadelphia Pa.), and pCXN-Cre was a gift of Inder Verma (Salk Institute, San Diego, Calif.). All constructs were subcloned into the lentiviral shuttle vector FCIV and verified by nucleotide sequence analysis. Viruses were prepared as previously described (Araki et al., 2004, Science 305:1010-1013). Protein and mRNA analysis. Immunoprecipitations and western blot analysis were performed by standard methods using antibodies directed against total AMPK, phosphorylated AMPK, total ACC or phosphorylated ACC that were obtained from Cell Signaling Technology (Beverley, Mass.). The phospho-AMPK antibody detects endogenous AMPK α1 and α2 when phosphorylated at threonine 172. The LKB1 antibody was purchased from Upstate (Lake Placid, N.Y.). Quantitative RT-PCR analysis was performed using Sybr-Green methodology on a model 7700 instrument (Applied Biosystems) as previously described (Araki et al., 2004, Science 305:1010-1013). Primer sequences were those used in previous studies (Motoshima, et al., 2006, J Physiol 574:63-71).
Resveratrol activation of AMPK in Neuro2a cells along with the crucial role of AMPK in promoting neurite outgrowth in these cells encouraged us to examine this pathway in primary neurons. […]

SMILES: NC(=O)c1cccnc1 [Nam, nicotinamide]
- effect on resveratrol-stimulated neurite outgrowth (neuro2A cells): had no effect
- effect on resveratrol-induced AMPK phosphorylation (AMPK): none of the SIRT inhibitors

SMILES: O=C1CCc2c(ccc3ccccc23)O1 [splitomycin]
- effect on resveratrol-stimulated neurite outgrowth (neuro2A cells): had no effect
- effect on resveratrol-induced AMPK phosphorylation (AMPK): none of the SIRT inhibitors

SMILES: CC(NC(=O)c1ccccc1/N=C/c1c(O)ccc2ccccc12)c1ccccc1 (stereo not shown) [Sirtinol]
- effect on resveratrol-stimulated neurite outgrowth (neuro2A cells): had no effect
- effect on resveratrol-induced AMPK phosphorylation (AMPK): none of the SIRT inhibitors

SMILES: Oc1ccc(C=Cc2cc(O)cc(O)c2)cc1 [resveratrol]
- neurite outgrowth compared to serum starvation alone (neuro2A cells; 0.2% FCS, resveratrol 10 μM or AICAR 1 mM): increased neurite outgrowth
- phosphorylation of AMPK and ACC (AMPK; E13.5 DRG sensory neurons, 10 μM): stimulated phosphorylation of AMPK and ACC

SMILES: O=C(O)c1ccc2c3c1cccc3c(=O)n1c3ccccc3nc21 [STO 609]
- effect on resveratrol-stimulated neurite outgrowth (neuro2A cells): had no effect
- effect on resveratrol-induced AMPK phosphorylation (AMPK): had no effect

From patent publication US20160367497A1, “METHODS AND COMPOSITIONS FOR TREATING NEUROPATHIES” (Washington University, priority 2007, published 2016)
